79 compounds from the METLIN SMRT retention time set (Domingo-Almenara et al. 2019) can be followed below.

Structures are written as SMILES.

A short description of this data set: gradient 5% acetonitrile 3 min, to 50% in 2 min, to 85% in 15 min, held 3 min, 100 µL/min. The conditions noted are these: column: Zorbax Extend-C18 2.1 x 50 mm; eluents: water / acetonitrile, 0.1% formic acid. In short, it runs like this: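 Mixtures of ~100 pure standards were chromatographed on a Zorbax Extend-C18 column (2.1 × 50 mm, 1.8 μm) at 100 μL/min using water and acetonitrile, each with 0.1% formic acid. Detection used a quadrupole time-of-flight mass spectrometer in positive and negative ionization mode, and data collection spanned 3 months. Retention time was obtained from adduct peaks picked computationally and each checked manually.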
The compound `O=C(Cc1cccc(F)c1)NC1CCN(c2ccccc2)C1=O` (centres undefined) returned an RP-LC retention time of 770 s. For `CCc1cccc(C)c1NC(=O)Cn1nc2n(c1=O)CCCCC2` the value was 700 s. With `Cc1nc(Cn2cccc2C(=O)NCc2cccc(Br)c2)no1` the figure was 852 s; with `CCCS(=O)(=O)c1ccc(NCc2ccc(OC)c(OC)c2)nn1`, 706 s. With `O=C(NCc1ccc(F)c(Cl)c1)c1nnn(-c2ccccc2)c1-c1ccccn1` the figure was 872 s; with `Cc1nnsc1C(=O)N1CCC(C(=O)NCC(F)(F)F)CC1`, 614 s. `Clc1ccccc1CNc1nnc(-c2nc(C3CC3)no2)c2ccccc12` came in with an RP-LC retention time of 1010 s. For `CCOC(=O)N1CCC(NC(=O)CCc2cc3ccc(C)cc3[nH]c2=O)CC1` the value was 689 s. For `Cc1cccc(NC(=O)C2CCCN2S(=O)(=O)c2cc3c(cc2Cl)NC(=O)CO3)c1C` (centres undefined), the RP-LC retention time is 891 s. For `CCCCN(C)c1ccc2nnc(CCc3nc(-c4cccc(C)c4)no3)n2n1` the value was 951 s. For `COc1ccc(NS(=O)(=O)c2cc(-c3nc(C(C)(C)C)cs3)cs2)cc1F` the value was 1180 s. Take `O=C(CCc1c(-c2ccccc2)nc2ccccn12)Nc1ccc(F)cc1`: the RP-LC retention time came out at 674 s.

As for `COc1ccc(C)cc1NC(=O)Cn1nc2cc(C)nc(-c3ccc(F)cc3)n2c1=O`, the RP-LC retention time came to 912 s. With `Cc1nc2cc(-c3noc(Cc4ccccc4Br)n3)ccc2o1` the figure was 1120 s; with `O=C(NCc1nc(-c2ccc3c(c2)ncn3C2CCCC2)no1)c1ccco1`, 655 s; with `O=C(CCCSc1ccc(F)cc1)Nc1nnc(Cc2ccc3c(c2)OCO3)o1`, 807 s. With `Cc1nnc(-c2cc(C)n(CC(=O)Nc3ccc(F)cc3)c2C)o1` the figure was 754 s. With `O=C(Cc1ccc(Br)cc1)Nc1nc(-c2ccccc2)cs1` the figure was 1100 s; with `Cc1ccc(-c2noc(C3CCCN3C(=O)c3cncc(Br)c3)n2)cc1` (centres undefined), 961 s; with `CCCCN1CCN(C(=O)C2CC(=O)N(c3ccc4c(c3)CCN4C(=O)C3CC3)C2)CC1` (centres undefined), 599 s. Take `CCN1C(=O)C(C)(C(=O)Nc2cc(C)ccc2C)Oc2cccnc21` (centres undefined): the RP-LC retention time is 744 s. With `CC(C)n1c(=O)sc2cc(S(=O)(=O)N3CCC(C(=O)N(C)C4CCCCC4)CC3)ccc21` the figure was 716 s; with `CCOC(=O)C1CCN(C(=O)c2n[nH]c(=O)c3ccccc23)CC1`, 677 s. For `Cn1ccc2cc(S(=O)(=O)N3CCC(C(=O)NC4CCN(Cc5ccccc5)CC4)CC3)ccc21` the value was 666 s; for `Cc1cccc(NC(=O)N2CCN(CC(=O)c3c(C)n(C)c4ccccc34)CC2)c1`, 693 s; for `Cc1ccc(Nc2c(-c3ccc(C)cc3)nc3cnccn23)cc1`, 969 s. For `CCOc1ccc(CCNC(=O)c2ccc3c(c2)N(CC)C(=O)c2ccccc2O3)cc1OCC` the value was 966 s; for `COc1ccccc1CNC(=O)C1CCN(C(=O)C2Sc3ccccc3NC2=O)CC1` (centres undefined), 736 s; for `O=c1c(NCCc2ccncc2)nc2ccncc2n1Cc1ccccc1`, 553 s. `Cc1cc(C)c(NC(=O)Cn2ncc3c(N4CCN(c5ccccn5)CC4)ncnc32)c(C)c1` returned an RP-LC retention time of 620 s.

On to `CCOc1ccc(NC(=O)N2CCN(c3nc4ccccc4n3C)CC2)cc1`, for which the RP-LC retention time amounted to 649 s. In turn, `Cc1cc(C)n(-c2cc(NCCNC(=O)c3ccc(F)cc3F)ncn2)n1` returned an RP-LC retention time of 718 s. `CC(=O)N1CCc2cc(N3CC(C(=O)Nc4cccc(Cl)c4)CC3=O)ccc21` (centres undefined) displayed an RP-LC retention time of 738 s.

For the compound `Cc1[nH]c(C)c(S(=O)(=O)N2CCC(C(=O)N3CCc4ccccc43)CC2)c1C(=O)N1CCCCC1`, the RP-LC retention time was 778 s. For `O=C(c1n[nH]c2ccccc12)N1CCCC1c1nc(-c2cccc(C(F)(F)F)c2)no1` (centres undefined) the value was 1330 s; for `Cc1cc(C)cc(N2C(=O)N(CC(=O)N3CCOc4ccc(C)cc43)C3CS(=O)(=O)CC32)c1` (centres undefined), 962 s; for `Cc1cc2[nH]c(C(=O)Nc3ccc(F)cc3Br)c(CN(C)C)c2s1`, 678 s.

In turn, `COc1ccc(OCC(=O)Nc2ccc3c(c2)CCCN3C(=O)C2CC2)cc1` came in with an RP-LC retention time of 852 s.

In turn, `O=C(Nc1ccccc1-c1nc2ccccc2[nH]1)c1cc2ccccc2o1` came in with an RP-LC retention time of 1080 s. For `CCC(=O)N1CCc2c(sc3ncnc(N)c23)C1` the value was 575 s.

`Cc1ccc(S(=O)(=O)N2CC(=O)N(c3ccc(F)cc3)C(C)(C(=O)NCc3ccccc3)C2)cc1` (centres undefined) returned an RP-LC retention time of 968 s.

In turn, `O=S(=O)(NCC(O)C1CCCCC1)c1ccc(OC(F)(F)F)cc1` (centres undefined) showed an RP-LC retention time of 949 s. As to `Cc1csc(C(=O)NCCC(O)C(C)(C)C)c1` (centres undefined), the RP-LC retention time was 718 s. For `O=c1c2sccc2n(Cc2nc(-c3ccccc3)no2)c(=O)n1-c1ccc(Cl)cc1` the value was 1040 s.

`CC(C)CCOc1cccc(OCC(=O)NCC(=O)O)c1`: the RP-LC retention time is 772 s. With `CC(=O)Nc1onc(C)c1-c1ccc(C)c(S(=O)(=O)Nc2ccc(C)cc2Cl)c1` the figure was 864 s.

`O=C(NCCCN1CCOCC1)c1csc(N2CCN(c3ccccc3)CC2)n1` showed an RP-LC retention time of 654 s. For `O=C(O)c1cc2c([nH]c1=O)CCCC2O` (centres undefined) the value was 516 s; for `COc1ccc(C)cc1NC(=O)CN1CCN(Cc2ccccc2)C(=O)C1=O`, 684 s. For `Cc1ccc(-c2noc(-c3ccccc3S(=O)(=O)Nc3ccc(S(N)(=O)=O)cc3)n2)cc1` the value was 933 s.

`Cc1cc(NC(=O)Cc2csc(NC(=O)c3ccc(F)cc3)n2)sn1` gave an RP-LC retention time of 701 s.

Take `CC(C)Cc1cc(-c2nnc3sc(COc4ccccc4Cl)nn23)n[nH]1`: the RP-LC retention time is 941 s. For `Cc1ccc(C2Cn3nnc(-c4nc(C5CCCCC5)no4)c3CO2)c(C)c1` (centres undefined) the value was 1390 s; for `CSc1cccc(NC(=O)c2cn(C)nc2S(=O)(=O)N2CCC(C)CC2)c1`, 1120 s. With `N#Cc1cccc(NC(=O)C2CCN(S(=O)(=O)c3ccc4c(c3)NC(=O)CO4)CC2)c1` the figure was 763 s; with `CCCN1C(=O)COc2ccc(-c3noc(-c4ccc(F)c(F)c4)n3)cc21`, 1270 s; with `Cc1ccc(NC(=O)Cn2c(C)nc3onc(C)c3c2=O)c(C)c1`, 800 s. For `Cc1ccc(CNC(=O)c2ccc3ncnc(N4CCCC4)c3c2)cc1C`, the RP-LC retention time is 684 s. With `COc1ccccc1NC(=O)C(C)n1nc(C)c2nn(-c3ccccc3)c(-n3cccc3)c2c1=O` (centres undefined) the figure was 1130 s. Turning to `Cc1nc2cc(-c3noc(-c4ccc(Cl)cc4)n3)ccc2n(C)c1=O`, the RP-LC retention time came out at 872 s.

Compound `CN1c2cc(F)ccc2C(=O)NC12CCN(C(=O)Nc1ccccc1)CC2` yielded an RP-LC retention time of 695 s. As for `CC1CCCN(CC2CCN(S(=O)(=O)c3cc(F)cc(F)c3)CC2)C1` (centres undefined), the RP-LC retention time worked out at 681 s. As for `COc1ccc(C2C(C(=O)NCCCN3CCOCC3)CCC(=O)N2c2ccc(OC)cc2)cc1` (centres undefined), the RP-LC retention time was 580 s. For `Cc1sc(-c2nnc(C3CC3)o2)cc1NC(=O)C(C)c1ccccc1` (centres undefined) the value was 998 s; for `COc1ccc(-c2noc(NCCc3ccc(OC)c(OC)c3)n2)cc1`, 891 s; for `Cc1nnc(C2CC3(CCN(CCCO)CC3)CN2CCc2ccccc2)o1` (centres undefined), 572 s. `CCn1c(=O)c(C(=O)NCc2cccc(OC)c2)nc2cccnc21` registered an RP-LC retention time of 780 s. On to `CN(CC1CCCO1)c1nc(-c2ccc([N+](=O)[O-])cc2)cs1` (centres undefined), for which the RP-LC retention time turned out to be 1110 s. In the case of `Cc1nnc2cc(N3CCN(C(=O)Nc4cccc(F)c4)CC3)cnn12`, the RP-LC retention time came out at 624 s. With `CN1c2ccc(F)cc2C(=O)NC12CCN(C(=O)c1ccc3c(c1)OCO3)CC2` the figure was 724 s; with `COCCCNC(=O)CCC(=O)N1CCCn2nc(-c3cn(C)c4ccccc34)cc21`, 670 s; with `CC(C)NC(=O)N1CC(c2nc(-c3ccccc3)no2)C2(CCOCC2)C1` (centres undefined), 715 s. With `Cc1ccccc1NC(=O)C1CCN(C(=O)C2Sc3ccccc3NC2=O)CC1` (centres undefined) the figure was 741 s; with `Cc1cc(N2CCCCC2C)n2nc(-c3ccccc3C)nc2n1` (centres undefined), 991 s. In the case of `CCNC(=O)C1CCN(S(=O)(=O)c2ccc3c(c2)NC(=O)CO3)CC1`, the RP-LC retention time was determined as 623 s. With `CCc1noc(C2(NC(=O)c3ccc(C#N)cc3)CCCCC2)n1`, the RP-LC retention time was 896 s. For `Cc1ccc(C)c(NC(=O)C2CCCN(S(=O)(=O)c3cn(C(C)C)cn3)C2)c1` (centres undefined) the value was 781 s.

The compound `OC[C@@H]1CN(Cc2ccc3[nH]ccc3c2)C[C@H]1c1ccccn1` had an RP-LC retention time of 580 s. For `COc1ccc(-c2c(C)noc2NC(C)=O)cc1S(=O)(=O)Nc1ccc2c(c1)OCCO2` the value was 707 s.
